Source: PMC9508239 (Nature Communications, 2022)
Values joined by “and” are separate entries in the source; they are usually repeats but may differ in a detail not shown here. Equal values may be shown once.

Experiments:
IR N15K = experiment: Auto-phosphorylation of IR in 293FT cells expressing IR N15K; type: cell-based, human
Experimental: (§1) For the activation assay, the short isoform of human IR in pCS2-MYC was used as described previously[20],[49]. Plasmid transfections into 293FT cells were performed with Lipofectamin^TM 2000 (Invitrogen).
(§2) The cells were incubated with the lysis buffer B [50 mM Hepes pH 7.4, 150 mM NaCl, 10% Glycerol, 1% Triton X-100, 1 mM EDTA, 100 mM sodium fluoride, 2 mM sodium orthovanadate, 20 mM sodium pyrophosphate, 0.5 mM dithiothreitol (DTT), 2 mM phenylmethylsulfonyl fluoride (PMSF)] supplemented with cOmplete Protease Inhibitor Cocktail (Roche), PhosSTOP (Sigma), and 25 U/ml turbo nuclease (Accelagen) on ice for 1 h. After centrifuging at 20,817×g at 4 °C for 10 min, the concentrations of cell lysate were measured using Micro BCA Protein Assay Kit (Thermo Scientific). About 50–60 μg total proteins were analyzed by SDS-PAGE and quantitative Western blotting. […] For quantitative western blots, anti-rabbit immunoglobulin G (IgG) (H + L) (WB, 1:5000; Dylight 800 conjugates, Cat. #5151) and anti-mouse IgG (H + L) (WB, 1:5000; Dylight 680 conjugates, Cat. #5470) (Cell Signaling) were used as secondary antibodies. […]

IR E697A = experiment: Auto-phosphorylation of IR in 293FT cells expressing IR E697A; type: cell-based, human
Experimental: as §1, §2

IR K484E/L552A = experiment: Auto-phosphorylation of IR in 293FT cells expressing IR K484E/L552A; type: cell-based, human; details: 10 nM, 10 min
Experimental: as §1, §2

[1] = Body weight after chronic treatment, before OGTT; type: in vivo, mouse
Experimental: For the oral glucose tolerance test, mice were fasted for 6 h and their blood glucose levels (T = 0) were measured with tail bleeding using a glucometer (AlphaTRAK). After then, glucose (2 g/kg body weight) was administered by oral gavage. Blood glucose levels were measured at the indicated time points after glucose administration. For Fig. S10f, 2 months old male mice were fasted for 14 h. […] One hour later, livers were collected.

## insulin: native IR ligand used as comparator; Humulin in the in vivo tests
IR N15K
  IR activation: reduced insulin-dependent IR activation
IR E697A
  IR activation: largely diminished IR activation by insulin
IR K484E/L552A
  IR activation: could not be activated efficiently
[1]; 50U/kg body weight, i.p., once daily for three days, male C57BL/6J, individual mice, N = 5, listed as Ins, in g (unit assumed)
  Body weight before OGTT: 19.9 and 21.6
[1]; 50U/kg once daily for three days, two-tailed Student's t-test
  Body weight, significance: No significant
